Laboratory results: patent US8822430B2 (Gilead Sciences, Inc., priority 2009, dated 2014)

Each compound was assayed on HCV 1b RLuc cells (dicistronic genotype 1b Con1 replicon) (assay: Renilla luciferase (RLuc)-based HCV replicon reporter assay). Conditions: Hepatitis C virus, 72 h, HCV 1b RLuc replicon, 72 hours; read-out: Activity (antiviral potency [EC50]).
Format: cell-based, HCV genotype 1b
Protocol: Antiviral potency (EC50) was determined using a Renilla luciferase (RLuc)-based HCV replicon reporter assay. To perform the assay, HCV 1b RLuc cells (harboring a dicistronic genotype 1b Con1 replicon that encodes a RLuc reporter), or HCV 1a RLuc cells (harboring a dicistronic genotype 1a H77 replicon that encodes a RLuc reporter), were dispensed into 384-well plates. Compounds were re-suspended in DMSO at a concentration of 10 mM and serially diluted in DMSO using an automated pipeting instrument. Serially diluted compounds were mixed with cell culture media and added to the seeded cells. DMSO was used as a negative (solvent) control, and the protease inhibitor ITMN-191 was included at a concentration >100×EC50 as a positive control. 72 hours later, cells were lysed and Renilla luciferase activity quantified as recommended by the manufacturer (Promega-Madison, Wis.). Non-linear regression was performed to calculate EC50 values.
Biological data (antiviral potency [EC50] was determined using a Renilla luciferase (RLuc)-based HCV replicon reporter assay—HCV 1b RLuc) for representative compounds of the invention is provided in the following table. These compounds can be prepared using procedures similar to those described above.

Going from `COC(=O)N[C@H](C(=O)NC1(c2ncc(-c3ccc(-c4ccc(-c5cnc([C@@H]6CCCN6C(=O)[C@@H](NC(=O)OC)C(C)C)[nH]5)cc4)cc3)[nH]2)CCC1)C(C)C` to `COC(=O)N[C@H](C(=O)N1CCC[C@H]1c1ncc(-c2ccc(-c3ccc(-c4cnc([C@H](C)N5CCC[C@@H](NC(=O)OC)C5=O)[nH]4)cc3)cc2)[nH]1)C(C)C`, the EC50 rises from 0.0184 nM to 0.661 nM (36-fold). The first is the more potent here.

`COC(=O)N[C@H](C(=O)N1CC2(CC2)C[C@H]1c1ncc(-c2ccc3cc(-c4ccc(-c5cnc([C@@H]6CC7(CN6C(=O)[C@@H](NC(=O)OC)C(C)C)OCCO7)[nH]5)cc4)ccc3c2)[nH]1)C(C)C` and `COC(=O)N[C@H](C(=O)N1CC2(CC2)C[C@H]1c1ncc(-c2ccc(-c3ccc4cc(-c5cnc([C@@H]6CC7(CC7)CN6C(=O)[C@@H](NC(=O)OC)C(C)C)[nH]5)ccc4c3)cc2)[nH]1)C(C)C` are within 1.5-fold of each other in EC50: 0.0063 nM for the first, 0.0048 nM for the second.

`COC(=O)N[C@H](C(=O)N1CCC[C@H]1c1ncc(-c2ccc3cc(-c4ccc(-c5cnc([C@@H]6CCCN6C(=O)[C@@H](NC(=O)OC)C6Cc7ccccc7C6)[nH]5)cc4)ccc3c2)[nH]1)C(C)C` and `COC(=O)NC(C(=O)N1CCC[C@H]1c1ncc(-c2ccc(-c3ccc4cc(-c5cnc([C@@H]6CCCN6C(=O)[C@@H](NC(=O)OC)C(C)C)[nH]5)ccc4c3)cc2)[nH]1)c1ccccc1C` (stereo partly drawn) are within 1.5-fold of each other in EC50: 0.0104 nM for the first, 0.0117 nM for the second.

Compared with `COC(=O)N[C@@H](CCC#N)C(=O)N1[C@@H]2CC[C@@H](C2)[C@H]1c1nc2ccc(-c3ccc4c(c3)C(F)(F)c3cc(-c5cnc([C@@H]6CC7(CC7)CN6C(=O)[C@@H](NC(=O)OC)C(C)C)[nH]5)ccc3-4)cc2[nH]1`, `COC(=O)N[C@@H](CCSC)C(=O)N1CCC[C@H]1c1nc(-c2ccc3c(c2)C(F)(F)c2cc(-c4cnc([C@@H]5CC6(CC6)CN5C(=O)[C@@H](NC(=O)OC)C(C)C)[nH]4)ccc2-3)c[nH]1` is 3.4-fold higher in EC50: 0.006 nM for the first, 0.0204 nM for the second.

First: COC(=O)N[C@H](C(=O)N1CCC[C@H]1c1ncc(-c2cc3c(C)c4sc(-c5cnc([C@@H]6CCCN6C(=O)[C@@H](NC(=O)OC)C(C)C)[nH]5)cc4c(C)c3s2)[nH]1)C(C)C
Second: COC(=O)NC(C(=O)N1CCC[C@H]1c1ncc(-c2cc3sc(C#Cc4cnc([C@@H]5CCCN5C(=O)[C@@H](NC(=O)OC)C(C)C)[nH]4)cc3s2)[nH]1)C(C)C (stereo partly drawn)
The EC50 of the first is 3-fold lower: 0.0166 nM for the first, 0.0503 nM for the second. The first is the more potent here.

First: COC(=O)N[C@H](C(=O)N1CCC[C@H]1c1ncc(-c2ccc3c(c2)S(=O)(=O)c2ccc(-c4cnc([C@@H]5CCCN5C(=O)[C@@H](NC(=O)OC)C(C)C)[nH]4)cc2S3(=O)=O)[nH]1)C(C)C
Second: COC(=O)N[C@H](C(=O)N1CCC[C@H]1c1ncc(-c2ccc3c(c2)CCc2cc(-c4cnc([C@@H]5CCCN5C(=O)[C@@H](NC(=O)OC)C(C)C)[nH]4)ccc2-3)[nH]1)C(C)C
The EC50 of the first is 1000-fold higher: 10.3 nM for the first, 0.0099 nM for the second.

`COC(=O)N[C@H](C(=O)N1CCC[C@H]1c1ncc(-c2ccc3cc(-c4ccc(-c5cnc([C@@H]6CCCN6C(=O)[C@@H](NC(=O)OC)C6CCOCC6)[nH]5)cc4)ccc3c2)[nH]1)C1CCCCC1` and `COC(=O)N[C@H](C(=O)N1CCC[C@H]1c1ncc(-c2ccc3cc(-c4ccc(-c5cnc([C@@H]6CCCN6C(=O)[C@@H](NC(=O)OC)C6CCCCC6)[nH]5)cc4)ccc3c2)[nH]1)C(C)C` are within 1.5-fold of each other in EC50: 0.0116 nM for the first, 0.0092 nM for the second.

Going from `COC(=O)N[C@H](C(=O)N1CCC[C@H]1c1ncc(-c2ccc3c(c2)C(C)(C)c2cc(-c4cnc([C@@H]5CCCN5C(=O)[C@@H](NC(=O)OC)C(C)C)[nH]4)ccc2-3)[nH]1)C(C)C` to `COC(=O)N[C@H](C(=O)N1CCC[C@H]1c1ncc(-c2ccc(-c3ccc4cc(-c5cnc([C@@H]6CCCN6C(=O)[C@@H](NC(=O)OC)C(C)C)[nH]5)ccc4c3)cc2)[nH]1)C(C)C`, the EC50 falls from 0.0102 nM to 0.0047 nM (2.2-fold).

First: COC(=O)N[C@H](C(=O)N1CCC[C@H]1c1ncc(-c2ccc(-c3ccc(-c4cnc([C@@H]5CN(c6ccccc6)CN5C(=O)[C@@H](NC(=O)OC)C(C)C)[nH]4)cc3)cc2)[nH]1)C(C)C
Second: COC(=O)N[C@H](C(=O)N1CCC[C@H]1c1ncc(-c2ccc(-c3ccc(-c4ccc5nc([C@@H]6CCN6C(=O)[C@@H](NC(=O)OC)C(C)C)[nH]c5c4)cc3)cc2)[nH]1)C(C)C
The EC50 of the first is 3.8-fold lower: 0.0074 nM for the first, 0.0282 nM for the second.

Going from `COC(=O)NC(C(=O)N1CCC[C@H]1c1ncc(-c2ccc(-c3ccc4cc(-c5cnc([C@@H]6CCCN6C(=O)[C@@H](NC(=O)OC)C(C)C)[nH]5)ccc4c3)cc2)[nH]1)=C1CCOCC1` to `COC(=O)NC(C(=O)N1CCC[C@H]1c1ncc(-c2ccc3cc(-c4ccc(-c5cnc([C@@H]6CCCN6C(=O)[C@@H](NC(=O)OC)C(C)C)[nH]5)cc4)ccc3c2)[nH]1)c1ccccc1` (stereo partly drawn), the EC50 falls from 0.0483 nM to 0.0092 nM (5.2-fold). The second is the more potent here.

First: COC(=O)N[C@H](C(=O)N1CCC[C@H]1c1ncc(C#Cc2ccc3cc(-c4cnc([C@@H]5CCCN5C(=O)[C@@H](NC(=O)OC)C(C)C)[nH]4)ccc3c2)[nH]1)C(C)C
Second: COC(=O)N[C@H](C(=O)N1CCC[C@H]1c1ncc(-c2ccc(-c3ccn(-c4cnc([C@@H]5CCCN5C(=O)[C@@H](NC(=O)OC)C(C)C)[nH]4)c(=O)c3)cc2)[nH]1)C(C)C
The EC50 of the first is 1500-fold lower: 0.0106 nM for the first, 15.9 nM for the second.

`COC(=O)NC(C(=O)N1CCC[C@H]1c1ncc(-c2cc3sc(-c4ccc5nc([C@@H]6CCCN6C(=O)[C@@H](NC(=O)OC)C(C)C)[nH]c5c4)cc3s2)[nH]1)C(C)C` (stereo partly drawn) and `COC(=O)N[C@H](C(=O)N1CCC[C@H]1c1nc2ccc(C#CC#Cc3ccc4nc([C@@H]5CCCN5C(=O)[C@@H](NC(=O)OC)C(C)C)[nH]c4c3)cc2[nH]1)C(C)C` are within 1.5-fold of each other in EC50: 0.0229 nM for the first, 0.0261 nM for the second.

First: COC(=O)N[C@H](C(=O)N1CC2(C[C@H]1c1ncc(-c3ccc(-c4ccc(-c5cnc([C@@H]6CCCN6C(=O)[C@@H](NC(=O)OC)C6CCOCC6)[nH]5)cc4)cc3)[nH]1)OCCO2)C(C)C
Second: COC(=O)N[C@@H](C)C(=O)N1CCN(C(=O)OC)C[C@H]1c1ncc(-c2ccc(-c3ccc(-c4cnc([C@@H]5CCCN5C(=O)[C@@H](NC(=O)OC)C(C)C)[nH]4)cc3)cc2)[nH]1
The EC50 of the first is 2.4-fold higher: 0.546 nM for the first, 0.224 nM for the second.

`COC(=O)NC(C(=O)N1CCC[C@H]1c1ncc(-c2ccc(-c3ccc4cc(-c5cnc([C@@H]6CCCN6C(=O)C(NC(=O)OC)c6ccccc6)[nH]5)ccc4c3)cc2)[nH]1)c1ccccc1` (stereo partly drawn) and `COC(=O)N[C@H](C(=O)N1CCC[C@H]1c1ncc(-c2ccc3cc(-c4ccc(-c5cnc([C@@H]6CCCN6C(=O)[C@H](OC)c6ccccc6)[nH]5)cc4)ccc3c2)[nH]1)C(C)C` are within 1.5-fold of each other in EC50: 0.0228 nM for the first, 0.0163 nM for the second.

Going from `COC(=O)N[C@H](C(=O)N1CCC[C@H]1C1=NC(=O)C(C)(c2ccc(-c3ccc(-c4cnc([C@@H]5CCCN5C(=O)[C@@H](NC(=O)OC)C(C)C)[nH]4)cc3)cc2)N1)C(C)C` (stereo partly drawn) to `COC(=O)N[C@H](C(=O)N1CCC[C@H]1C(=O)Nc1cccc(-c2ccc(-c3ccc(-c4cnc([C@@H]5CCCN5C(=O)[C@@H](NC(=O)OC)C(C)C)[nH]4)cc3)cc2)c1)C(C)C`, the EC50 falls from > 44.4 nM to 0.0111 nM.

`COC(=O)N[C@H](C(=O)N1CC2(CC2)C[C@H]1c1ncc(-c2ccc(-c3ccc4cc(-c5cnc([C@@H]6[C@H]7CC[C@H](C7)N6C(=O)[C@@H](NC(=O)OC)C(C)C)[nH]5)ccc4c3)cc2)[nH]1)C(C)C` and `COC(=O)N[C@H](C(=O)N1C[C@@H](C#N)C[C@H]1c1ncc(-c2ccc3cc(-c4ccc(-c5cnc([C@@H]6[C@H]7CC[C@H](C7)N6C(=O)[C@@H](NC(=O)OC)C(C)C)[nH]5)cc4)ccc3c2)[nH]1)C(C)C` are within 1.5-fold of each other in EC50: 0.0076 nM for the first, 0.0097 nM for the second.

First: COC(=O)N[C@H](C(=O)N1CCC[C@H]1c1ncc(-c2ccc3c(c2)oc2cc(-c4cnc([C@@H]5[C@H]6CC[C@H](C6)N5C(=O)[C@@H](NC(=O)OC)C(C)C)[nH]4)ccc23)[nH]1)C(C)C
Second: COC(=O)N[C@@H](CC#N)C(=O)N1[C@@H]2CC[C@@H](C2)[C@H]1c1ncc(-c2ccc3cc(-c4ccc(-c5cnc([C@@H]6CCCN6C(=O)[C@@H](NC(=O)OC)C(C)C)[nH]5)cc4)ccc3c2)[nH]1
The EC50 of the first is 1.6-fold lower: 0.0082 nM for the first, 0.013 nM for the second. The first is the more potent here.

Compared with `COC(=O)N[C@H](C(=O)N1CCC[C@H]1c1ncc(-c2ccc(C#Cc3ccc(-c4cnc([C@@H]5CN(C(=O)OC(C)(C)C)CN5C(=O)[C@@H](NC(=O)OC)C(C)C)[nH]4)cc3)cc2)[nH]1)C(C)C`, `COC(=O)N[C@H](C(=O)N1CC2(CC2)C[C@H]1c1ncc(-c2ccc3cc(-c4ccc(-c5cnc([C@@H]6CCCN6C(=O)[C@@H](NC(=O)OC)C(C)OC)[nH]5)cc4)ccc3c2)[nH]1)C(C)C` (stereo partly drawn) is 43-fold lower in EC50: 0.318 nM for the first, 0.0074 nM for the second. The second is the more potent here.

Going from `COCCO[C@H]1C[C@@H](c2ncc(-c3ccc(-c4ccc5cc(-c6cnc([C@@H]7CC8(CC8)CN7C(=O)[C@@H](NC(=O)OC)C(C)C)[nH]6)ccc5c4)cc3)[nH]2)N(C(=O)[C@@H](NC(=O)OC)C(C)C)C1` to `COC(=O)N[C@@H](CCS(C)(=O)=O)C(=O)N1CC2(CC2)C[C@H]1c1ncc(-c2ccc(-c3ccc4cc(-c5cnc([C@@H]6C[C@H](C#N)CN6C(=O)[C@@H](NC(=O)OC)C(C)C)[nH]5)ccc4c3)cc2)[nH]1`, the EC50 rises from 0.0146 nM to 0.0405 nM (2.8-fold).

Going from `COC(=O)N[C@H](C(=O)N1CCC[C@H]1c1ncc(-c2ccc3cc(-c4ccc(-c5cnc(-c6cccn6S(=O)(=O)c6ccccc6)[nH]5)cc4)ccc3c2)[nH]1)C(C)C` to `COC(=O)N[C@H](C(=O)N1CCC[C@H]1c1ncc(-c2ccc3cc(-c4ccc(-c5cnc([C@@H]6CCCN6C(=O)[C@@H](Cc6cn(C)c7ccccc67)NC(=O)OC)[nH]5)cc4)ccc3c2)[nH]1)C(C)C`, the EC50 falls from 24.1 nM to 6.18 nM (3.9-fold). The second is the more potent here.

First: COC(=O)N[C@H](C(=O)N1CCC[C@H]1c1ncc(-c2ccc(-c3ccc(-c4cnc(CN5CCC[C@@H](N)C5=O)[nH]4)cc3)cc2)[nH]1)C(C)C
Second: COC(=O)N[C@H]1CC[C@H]2CC[C@@H](c3ncc(-c4ccc(-c5ccc(-c6cnc([C@@H]7CCCN7C(=O)[C@@H](NC(=O)OC)C(C)C)[nH]6)cc5)cc4)[nH]3)N2C1=O
The EC50 of the first is 48-fold higher: 7.55 nM for the first, 0.156 nM for the second.
